Data set [1] concerns the target T1, Organic cation/carnitine transporter 2 (Homo sapiens, UniProt O76082).
T1 sequence (O76082 whole entry): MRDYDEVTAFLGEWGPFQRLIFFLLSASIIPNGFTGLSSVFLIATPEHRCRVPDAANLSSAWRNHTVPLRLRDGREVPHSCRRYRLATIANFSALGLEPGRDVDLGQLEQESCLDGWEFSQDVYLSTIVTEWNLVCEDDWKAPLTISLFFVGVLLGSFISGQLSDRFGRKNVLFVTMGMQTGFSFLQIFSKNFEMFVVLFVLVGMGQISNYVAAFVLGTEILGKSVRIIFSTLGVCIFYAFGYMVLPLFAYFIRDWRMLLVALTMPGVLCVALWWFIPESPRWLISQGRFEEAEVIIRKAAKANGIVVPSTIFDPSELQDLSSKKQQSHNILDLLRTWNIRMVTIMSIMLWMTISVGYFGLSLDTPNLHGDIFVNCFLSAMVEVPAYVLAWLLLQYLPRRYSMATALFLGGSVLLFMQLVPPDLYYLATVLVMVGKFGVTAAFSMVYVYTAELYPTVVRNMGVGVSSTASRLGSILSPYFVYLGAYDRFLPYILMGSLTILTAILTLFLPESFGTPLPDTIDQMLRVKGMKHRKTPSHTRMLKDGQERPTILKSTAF
Description: TP_TRANSPORTER: uptake in OCTN2-expressing HEK293 cells. Type of data set: functional, cell-based.

In data set [2] the target is T2, OCTN2 (organic cation/carnitine transporter 2) (Homo sapiens, UniProt O76082).
T2 sequence (O76082 whole entry): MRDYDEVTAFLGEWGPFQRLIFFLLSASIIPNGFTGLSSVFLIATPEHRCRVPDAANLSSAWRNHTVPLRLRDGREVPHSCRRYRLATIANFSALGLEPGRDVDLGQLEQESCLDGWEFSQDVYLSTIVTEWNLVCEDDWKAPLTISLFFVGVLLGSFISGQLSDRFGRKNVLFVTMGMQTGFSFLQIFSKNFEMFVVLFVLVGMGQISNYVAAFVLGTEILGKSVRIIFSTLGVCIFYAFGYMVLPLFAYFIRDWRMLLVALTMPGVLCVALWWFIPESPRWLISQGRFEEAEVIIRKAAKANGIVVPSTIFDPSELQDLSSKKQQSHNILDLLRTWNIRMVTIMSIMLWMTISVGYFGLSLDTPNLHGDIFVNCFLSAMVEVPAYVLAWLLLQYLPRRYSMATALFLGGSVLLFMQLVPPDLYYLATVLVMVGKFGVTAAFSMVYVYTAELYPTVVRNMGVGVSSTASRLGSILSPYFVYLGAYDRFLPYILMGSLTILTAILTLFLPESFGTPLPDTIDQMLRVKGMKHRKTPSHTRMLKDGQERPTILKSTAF
As to the kind of experiment: TP_TRANSPORTER: inhibition of Carnitine uptake (Carnitine: 0.010? uM, Pyrilamine: 500 uM) in OCTN2-expressing HEK293 cells. Type of data set: functional, cell-based. Details: scale not given: the % may be the effect or the level left. The note with it: HEK293 cells that express OCTN2, probe Carnitine, read-out: Activity.

Data set [3] has as its target T2, OCTN2 (organic cation/carnitine transporter 2). Description: TP_TRANSPORTER: inhibition of Carnitine uptake (Carnitine: 0.010? uM, Probenecid: 500 uM) in OCTN2-expressing HEK293 cells. The note with it: HEK293 cells that express OCTN2, probe Carnitine, read-out: Activity. Also on record: scale not given: the % may be the effect or the level left. Type of data set: functional, cell-based.

Data set [4] shares this target. As to the kind of experiment: TP_TRANSPORTER: inhibition of Carnitine uptake (Carnitine: 0.010? uM, Aldosterone: 500 uM) in OCTN2-expressing HEK293 cells. Type of data set: functional, cell-based. Also on record: scale not given: the % may be the effect or the level left. The following applies: HEK293 cells that express OCTN2, probe Carnitine, read-out: Activity.

The target is the same in data set [5]. Description: in vitro. The note with it: HEK293 cells that express OCTN2, probe Carnitine.
Description: TP_TRANSPORTER: inhibition of Carnitine uptake (Carnitine: 0.010? uM, Clonidine: 500 uM) in OCTN2-expressing HEK293 cells
Data set [6] addresses T1, Organic cation/carnitine transporter 2. As to the kind of experiment: TP_TRANSPORTER: inhibition of Carnitine uptake (Carnitine: 0.010? uM, AZT: 500 uM) in OCTN2-expressing HEK293 cells. The note with it: hek293, 500 µM. Type of data set: functional, cell-based.
Data set [7] addresses T2, OCTN2 (organic cation/carnitine transporter 2). As to the kind of experiment: TP_TRANSPORTER: inhibition of Carnitine uptake (Carnitine: 0.010? uM, MPP+: 100 uM) in OCTN2-expressing HEK293 cells. Type of data set: functional, cell-based. Also on record: scale not given: the % may be the effect or the level left. The note with it: HEK293 cells that express OCTN2, probe Carnitine, read-out: Activity.

Data set [8] has the same target. As to the kind of experiment: TP_TRANSPORTER: inhibition of Carnitine uptake (Carnitine: 0.010? uM, Valproic acid: 500 uM) in OCTN2-expressing HEK293 cells. Type of data set: functional, cell-based. Details: scale not given: the % may be the effect or the level left. The note with it: HEK293 cells that express OCTN2, probe Carnitine, read-out: Activity.
The target is the same in data set [9]. Description: TP_TRANSPORTER: inhibition of Carnitine uptake (Carnitine: 0.010? uM, GPFX: 500 uM) in OCTN2-expressing HEK293 cells. The note with it: HEK293 cells that express OCTN2, probe Carnitine, read-out: Activity. Details: scale not given: the % may be the effect or the level left. Type of data set: functional, cell-based.
In data set [10] the target is T1, Organic cation/carnitine transporter 2. As to the kind of experiment: TP_TRANSPORTER: inhibition of Carnitine uptake (Carnitine: 0.010? uM, Carnosine: 500 uM) in OCTN2-expressing HEK293 cells. Type of data set: functional, cell-based. The note with it: hek293, 500 µM.
Data set [11] has as its target T2, OCTN2 (organic cation/carnitine transporter 2). As to the kind of experiment: TP_TRANSPORTER: inhibition of Carnitine uptake (Carnitine: 0.010? uM, Emetine: 500 uM) in OCTN2-expressing HEK293 cells. The following applies: HEK293 cells that express OCTN2, probe Carnitine, read-out: Activity. Type of data set: functional, cell-based. Also on record: scale not given: the % may be the effect or the level left.

The target of data set [12] is T1, Organic cation/carnitine transporter 2. As to the kind of experiment: TP_TRANSPORTER: inhibition of Carnitine uptake (Carnitine: 0.010? uM, Creatine: 500 uM) in OCTN2-expressing HEK293 cells. Type of data set: functional, cell-based. The following applies: hek293, 500 µM.
Data set [13] addresses T2, OCTN2 (organic cation/carnitine transporter 2). Description: in vitro. The following applies: HEK293 cells that express OCTN2, probe Carnitine. The source holds these as a separate data set.
Description: TP_TRANSPORTER: inhibition of Carnitine uptake (Carnitine: 0.010? uM, Nicotine: 500 uM) in OCTN2-expressing HEK293 cells
For data set [14] the target is unchanged. As to the kind of experiment: TP_TRANSPORTER: inhibition of Carnitine uptake (Carnitine: 0.010? uM, Trimethyllysine: 500 uM) in OCTN2-expressing HEK293 cells. Type of data set: functional, cell-based. Details: scale not given: the % may be the effect or the level left. The following applies: HEK293 cells that express OCTN2, probe Carnitine, read-out: Activity.

Data set [15] addresses T1, Organic cation/carnitine transporter 2. Description: TP_TRANSPORTER: inhibition of Carnitine uptake (Carnitine: 0.010? uM, Arginine: 500 uM) in OCTN2-expressing HEK293 cells. The note with it: hek293, 500 µM. Type of data set: functional, cell-based.
The target of data set [16] is T2, OCTN2 (organic cation/carnitine transporter 2). As to the kind of experiment: TP_TRANSPORTER: inhibition of Carnitine uptake (Carnitine: 0.010? uM, Quinidine: 500 uM) in OCTN2-expressing HEK293 cells. Type of data set: functional, cell-based. Details: scale not given: the % may be the effect or the level left. The note with it: HEK293 cells that express OCTN2, probe Carnitine, read-out: Activity.

On to `COc1ccc(CN(CCN(C)C)c2ccccn2)cc1` [PYRILAMINE], for which the Activity entry in data set [1] is “substrate [+]”. Moreover, the activity at 500 µM in [2] came out at 38.6%.

For the molecule `CCCN(CCC)S(=O)(=O)c1ccc(C(=O)O)cc1` [PROBENECID], the activity at 500 µM in data set [3] turned out to be 77.4%.

In the case of `C[C@]12CCC(=O)C=C1CC[C@@H]1[C@@H]2[C@@H](O)C[C@]2(C=O)[C@@H](C(=O)CO)CC[C@@H]12` [ALDOSTERONE], the activity at 500 µM in [4] worked out at 37.1%.

Turning to `Clc1cccc(Cl)c1N=C1NCCN1` [CLONIDINE], in data set [5], the activity at 500 µM was 67.6%.

Regarding `Cc1cn([C@H]2C[C@H](N=[N+]=[N-])[C@@H](CO)O2)c(=O)[nH]c1=O` [ZIDOVUDINE], the Activity result in [6] was “is not an inhibitor [-]”.

Turning to `C[n+]1ccc(-c2ccccc2)cc1`, the activity at 100 µM in data set [7] is 69.8%. The Activity entry in [1] was “is not a substrate [-]”.

Regarding `CCCC(CCC)C(=O)O` [VALPROIC ACID], the Activity entry in data set [1] was “substrate [+]”. In addition, in [8], the activity at 500 µM stood at 82.3%.

Consider `Cc1c(F)c(N2CCNC(C)C2)cc2c1c(=O)c(C(=O)O)cn2C1CC1` (centres undefined) [GREPAFLOXACIN], for which the activity at 500 µM in data set [9] came to 68.6%.

With `NCCC(=O)N[C@@H](Cc1cnc[nH]1)C(=O)O` [CARNOSINE], in [10], the Activity result was “is not an inhibitor [-]”.

`CC[C@H]1CN2CCc3cc(OC)c(OC)cc3[C@@H]2C[C@@H]1C[C@H]1NCCc2cc(OC)c(OC)cc21` [EMETINE]: the activity at 500 µM in data set [11] was 16.6%.

On to `CN(CC(=O)O)C(=N)N` [CREATINE], for which, in data set [12], the Activity entry is “is not an inhibitor [-]”.

On to `CN1CCC[C@H]1c1cccnc1` [NICOTINE], for which the activity at 500 µM in [13] stood at 82.6%.

Turning to `C[N+](C)(C)CCCC[C@H](N)C(=O)O` [TRIMETHYLLYSINE], the activity at 500 µM in data set [14] came out at 69%.

With `N=C(N)NCCC[C@H](N)C(=O)O` [ARGININE], the Activity entry in data set [15] is “is not an inhibitor [-]”.

Consider `C=C[C@H]1C[N@@]2CC[C@H]1C[C@@H]2[C@@H](O)c1ccnc2ccc(OC)cc12` [QUINIDINE], for which the Activity result in data set [1] was “substrate [+]”. Moreover, the activity at 500 µM in [16] is 9.1%.

(Values after ChEMBL document CHEMBL2073748, “Na(+)-dependent carnitine transport by organic cation transporter (OCTN2): its pharmacological and toxicological relevance” (J Pharmacol Exp Ther, 1999).)
